Data published in ChEMBL document CHEMBL3301361, “Experimental in vitro DMPK and physicochemical data on a set of publicly disclosed compounds”.
Values after ≈ are worked out from the molar mass of the structure shown.

What was measured:
physchem [1] = details: octan-1-ol/water
in vitro [2] = details: SD, HW or BN, rat, plasma
physchem [3] = details: pH 7.4 buffer
in vitro [4] = details: human, plasma

| Structure (SMILES) | logD (physchem [1]; pH 7.4, LogD7.4) | fraction unbound at 5 h (in vitro [2]) | also measured |
| --- | --- | --- | --- |
| CC(C)(C)OC(=O)N1CCC(OCc2nc(-c3ccncc3)no2)CC1 | 3 | 0.0752 | solubility thermodynamic (physchem [3]): 269 µM (≈ 97 µg/mL) |
| NCCCCN(Cc1nc2ccccc2[nH]1)C1CCCc2cccnc21 (stereo not drawn) | 0.83 | 0.371 |  |
| COCCNCC(=O)NC12CC3CC(CC(C3)C1)C2 |  | 0.483 | fraction unbound at 5 h (in vitro [4]; PPB): 0.5 |
| Cc1cccc2cc(CN(Cc3ccco3)C(=O)Nc3cccc(C#N)c3)c(Cl)nc12 |  | 0.0009 |  |
| Cc1ccc(S(=O)(=O)Nc2ccc3nc(C)sc3c2)cc1 |  | 0.0053 | fraction unbound at 5 h (in vitro [4]): 0.0021 |
| Cc1nc2ccc(NS(=O)(=O)c3ccc(C)c(C)c3)cc2s1 |  | 0.0024 |  |
| CC(O)(C(=O)Nc1ccc(S(=O)(=O)N2CCOCC2)cc1)C(F)(F)F (stereo not drawn) |  | 0.151 | fraction unbound at 5 h (in vitro [4]; PPB): 0.371 |
| C[C@H](Nc1nc(Nc2cc(C3CC3)[nH]n2)c(F)cc1C#N)c1ccc(F)cc1 |  | 0.002 |  |
| O=c1[nH]c2c(O)ccc([C@@H](O)CNCCCOCCOCCc3ccccc3)c2s1 | 1.09 | 0.465 |  |
| CC(C)(C)[C@@H](O)C(=O)N1CCC[C@H]1C(=O)NCc1cc(Cl)ccc1CN |  | 0.5 | fraction unbound at 5 h (in vitro [4]; PPB): 0.58 |
| Nc1nc(-c2nn(Cc3ccccc3F)c3ncccc23)nc(N)c1N1CCOCC1 |  | 0.117 | fraction unbound at 5 h (in vitro [4]): 0.0768 |
| C[C@@H]1c2c([nH]c3ccc(C(F)(F)F)cc23)C[C@@H]2CCN(CCN3CCOCC3)C[C@H]21 | 2.87 | 0.0313 |  |
| O=C(c1ccc(-c2ccc(Cl)cc2)o1)N(Cc1ccccn1)c1ccc(N2CCNCC2)cc1 | 3 | 0.0219 |  |
| COCCNCc1cccc(CCNC[C@H](O)c2ccc(O)c3[nH]c(=O)sc23)c1 | 0.01 | 0.197 |  |
| CN(C(=O)Cc1ccc(S(C)(=O)=O)cc1)C1CCN(Cc2ccc(C(F)(F)F)cc2)CC1 |  | 0.16 | solubility thermodynamic (physchem [3]): 363 µM (≈ 170 µg/mL) |
| CCOc1ccc([C@@H](C)Nc2nc(N3CCN(C(C)=O)CC3)nc3c2CN(C(C)C)C3=O)cc1F |  | 0.258 | fraction unbound at 5 h (in vitro [4]; PPB): 0.334 |
| Nc1nc2ccc(C(=O)c3ccccc3)cc2[nH]1 | 2.29 | 0.0736 |  |
| Cc1ccc(NC(=O)c2cccc(N3CCOCC3)c2)cc1-n1cnc2ccc(N3CCN(C)CC3)cc2c1=O | 2.69 | 0.103 | solubility thermodynamic (physchem [3]): 427 µM (≈ 230 µg/mL) |
| COC[C@H](C)Oc1cc(O[C@@H](C)Cc2ccccc2)cc(C(=O)Nc2ccc(C(=O)O)cn2)c1 | 1.5 | 0.0042 | solubility thermodynamic (physchem [3]): 1480 µM (≈ 687 µg/mL) |
| COc1cc(-n2cnc3cc(-c4ccc(Cl)cc4)sc3c2=O)ccc1OCCN1CCCC1 | 2.74 | 0.0099 |  |
| Cc1c(-c2cc3ccccc3o2)oc(=O)c(C)c1O |  | 0.0026 |  |
| C[S+]([O-])Cc1ccc(C(=O)Nc2cccnc2C(=O)NCC2CCC2)c2ccccc12 (stereo not drawn) |  | 0.0119 | fraction unbound at 5 h (in vitro [4]): 0.013 |
| COc1ccc(NC(=O)c2ccc(C[S+](C)[O-])c3ccccc23)c(C(=O)NCC2CCOCC2)n1 (stereo not drawn) |  | 0.0437 | fraction unbound at 5 h (in vitro [4]): 0.0544 |
| COc1ccc(NC(=O)c2ccnc3ccccc23)c(C(=O)NCC2CCC2)n1 |  | 0.0009 |  |
| O=S(=O)(Nc1ncns1)c1cc(F)c(Oc2cc(F)c(Cl)cc2-c2cn[nH]c2)cc1F |  | 0.002 |  |
| O=S(=O)(Nc1ncns1)c1cc(F)c(Oc2ccc(Cl)cc2-c2cn[nH]c2)cc1F |  | 0.001 |  |
| CC(C)(C)NC(=O)CN1CCN(CC(=O)NC23CC4CC(CC(C4)C2)C3)CC1 |  | 0.309 | fraction unbound at 5 h (in vitro [4]; PPB): 0.299 |
| N#Cc1ccc2[nH]c(-c3ccc(F)cc3)c(CCCC(=O)NS(=O)(=O)C(F)(F)F)c2c1 |  | 0.0661 | solubility thermodynamic (physchem [3]): 309 µM (≈ 140 µg/mL) |

| Structure (SMILES) | logD (physchem [1]; pH 7.4, LogD7.4) | fraction unbound at 5 h (in vitro [2]) | also measured |
| --- | --- | --- | --- |
| O=[N+]([O-])c1ccc(-c2nc(-c3ccccc3)c(-c3ccccc3)[nH]2)cc1 |  | 0.0006 |  |
| C=CCN(C)CCCCCCOc1ccc(C(=O)c2ccc(Br)cc2)c(F)c1 |  | 0.0006 |  |
| O=C(Nc1ccccc1)Nc1nc(-c2ccccc2)cs1 |  | 0.0005 |  |
| O=C(c1cc(Cc2n[nH]c(=O)c3ccccc23)ccc1F)N1CCCNCC1 | 0.1 | 0.597 |  |
| O=C(CC1CCCCCC1)Nc1cccc2c(=O)n([C@H]3CCNC3)ccc12 | 1.15 | 0.232 |  |
| O=C(Cc1ccc(F)c(C(F)(F)F)c1)Nc1cccc2c(=O)n([C@@H]3CNC[C@H]3O)ccc12 | 1.33 | 0.0948 |  |
| C[C@@](O)(C(=O)Nc1ccc(S(C)(=O)=O)cc1Cl)C(F)(F)F | 2.08 | 0.16 |  |
| COc1ccc(CN2CCc3c([nH]c4ccccc34)C2)cc1OC | 3.1 | 0.0418 | solubility thermodynamic (physchem [3]): 51.3 µM (≈ 16.5 µg/mL) |
| O=C(O)c1cc(O)cc(O)c1 [3,5-DIHYDROXYBENZOIC ACID] |  | 0.824 |  |
| COc1cc(F)c(C(C)C)cc1-c1ccc(C(F)(F)F)cc1CN1C(=O)O[C@H](c2cc(C(F)(F)F)cc(C(F)(F)F)c2)[C@@H]1C [ANACETRAPIB] |  | 0.0328 |  |
| C[C@@H](O[C@H]1OCCN(Cc2n[nH]c(=O)[nH]2)[C@H]1c1ccc(F)cc1)c1cc(C(F)(F)F)cc(C(F)(F)F)c1 [APREPITANT] |  | 0.0023 |  |
| CNC(=O)c1ccc(Oc2ccc3c(c2)CCN(C2CCC2)CC3)nc1 [GSK189254] | 1.45 | 0.523 |  |
| O=C(O)CCc1ccc(NCc2cccc(Oc3ccccc3)c2)cc1 [GW9508] | 2.1 | 0.0052 |  |
| O=C(O)Cc1cn(-c2ccccc2)nc1-c1ccc(Cl)cc1 [LONAZOLAC] |  | 0.0018 |  |
| CN1CCC(N2CCN(C(=O)[C@H](NC(=O)c3ccc4cc[nH]c4c3)c3ccccc3)CC2)CC1 [LY-517717] |  | 0.54 |  |
| NCCCCN(Cc1nc2ccccc2[nH]1)[C@H]1CCCc2cccnc21 [MAVORIXAFOR] |  | 0.244 |  |
| COc1nc(C)nc(Cl)c1N=C1NCCN1 [MOXONIDINE] |  | 0.886 |  |
| O=S(=O)(Nc1nncs1)c1cc(Cl)c(Oc2ccc(C(F)(F)F)cc2-c2ccnnc2)cc1F [PF-05186462] | 1.15 | 0.02 |  |
| O=c1[nH]c2ccccc2n1C1CCN(CCCC(c2ccc(F)cc2)c2ccc(F)cc2)CC1 [PIMOZIDE] |  | 0.003 |  |
| CC(C)NCC(O)COc1cccc2[nH]ccc12 (stereo not drawn) [PINDOLOL] |  | 0.586 | logD (physchem [1]; pH 7.4): -0.12 |
| CC(C)C[C@H](CN)CC(=O)O [PREGABALIN] |  | 0.5 |  |
| CC(CN1c2ccccc2Sc2ccccc21)N(C)C (stereo not drawn) [PROMETHAZINE] | 2.67 | 0.0705 |  |
| COc1ccccc1OCC(O)CN1CCN(CC(=O)Nc2c(C)cccc2C)CC1 (stereo not drawn) [RANOLAZINE] |  | 0.465 |  |
| CC[C@H](NC(=O)c1c(O)c(-c2ccccc2)nc2ccccc12)c1ccccc1 [TALNETANT] | 3.91 | 0.0005 |  |
| CCC(C)(C)C(=O)O[C@H]1C[C@@H](C)C=C2C=C[C@H](C)[C@H](CC[C@@H](O)C[C@@H](O)CC(=O)O)[C@H]21 [TENIVASTATIN] | 1.55 | 0.024 |  |
| CCc1nn(C2CCCC2)c2c1CCn1c(-c3cccs3)nnc1-2 [TOFIMILAST] |  | 0.0477 | solubility thermodynamic (physchem [3]): 22.4 µM (≈ 7.6 µg/mL) |
| Cc1ccc(OCC(O)C(C)NC(C)C)c2c1CCC2 (stereo not drawn) [ZENIDOLOL] |  | 0.216 |  |
